Consider 23 compounds from US20250388605A1, “HETEROBIFUNCTIONAL COMPOUNDS AND METHODS OF TREATING DISEASE” (Halda Therapeutics OpCo, Inc., priority 2022, published 2025).

One may read the GI50 as the concentration at which growth is held to half of that of the control.

In assay [1] the test system is VCaP cells. Nature of the assay: Cellular growth inhibition assay for VCaP cells, CellTiter-Glo. As to conditions: 72 hours. It counts as cell-based, human. The procedure, abridged: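 GI50 values come from four-parameter curve fits of luminescence data normalized to a zero baseline. Compound, in medium with 0.5% DMSO, was added one day after plating and left for 72 h before CellTiter-Glo 2.0 addition.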

The subject of assay [2] is T47D cells. Nature of the assay: Cellular Growth Inhibition Assay for T47D Cells (CellTiter-Glo). The assay is classed as cell-based, human. Particulars: 72 hours. The essentials:
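GI50 values derive from four-parameter regression of CellTiter-Glo 2.0 luminescence, using zero luminescence as baseline. Human breast cancer T47D cells (3000/well; DMEM, 10% FBS, 0.2 units/mL insulin) were exposed for 72 h to compound dilutions at 0.5% DMSO, with dosing starting 24 h after seeding.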

Assay [3] deals with T-Rex 293 cell line SC3 cells lacking increased expression of androgen receptor protein. As to the kind of experiment: Cellular growth inhibition, T-Rex 293 SC3 cells without doxycycline (no increased androgen receptor expression), CellTiter-Glo. It counts as cell-based. Particulars: T-Rex 293 SC3 cells not exposed to doxycycline (no increased androgen receptor expression), 72 hours. The essentials:
(§1)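 Doxycycline (10 ng/mL) was either included or omitted to toggle wild-type androgen receptor expression in SC3 cells, a T-Rex 293 clone, grown in stripped-serum, phenol red-free medium. After 72 hours with compound, viable cells were quantified by CellTiter-Glo 2.0.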
For orientation: ATP-based viability assays read luminescence as a measure of living cells.

Assay [4] concerns T-Rex 293 cell line SC3 cells having increased expression of androgen receptor protein due to exposure to doxycycline. Nature of the assay: Cellular growth inhibition, T-Rex 293 SC3 cells with doxycycline (increased androgen receptor expression), CellTiter-Glo. It counts as cell-based. As to conditions: T-Rex 293 SC3 cells with 10 ng/mL doxycycline (increased androgen receptor expression), 72 hours, CellTiter-Glo 2.0. The procedure, abridged:
as §1

As for `Cn1cc(-c2cc(C(C)(C)O)ccc2OCC(CCOC2CCN(c3ncc(C(=O)N[C@H]4C(C)(C)[C@H](Oc5ccc(C#N)c(Cl)c5)C4(C)C)cn3)CC2)C2CC2)c2cc[nH]c2c1=O` (some centres unmarked) [Compound I-265], the GI50 is 500 to 1500 nM in assay [1], 1500 to 3000 nM in assay [2], 500 to 1500 nM in assay [3] and less than 500 nM in assay [4].

Consider `Cn1cc(-c2cc(S(C)(=O)=O)ccc2Oc2cccc(N3CC(OC4CCN(c5ncc(C(=O)N[C@H]6C(C)(C)[C@H](Oc7ccc(C#N)c(Cl)c7)C6(C)C)cn5)CC4)C3)c2F)c2cc[nH]c2c1=O` [Compound I-191], for which the GI50 in assay [1], in assay [2], in assay [3] and in assay [4] was less than 500 nM throughout.

`Cn1cc(-c2cc(C(C)(C)O)ccc2OC(CCCCOC2CCN(c3ncc(C(=O)N[C@H]4C(C)(C)[C@H](Oc5ccc(C#N)c(Cl)c5)C4(C)C)cn3)CC2)C2CC2)c2cc[nH]c2c1=O` (some centres unmarked) [Compound I-251]: the GI50 in assay [1] was 500 to 1500 nM; in assay [2], 500 to 1500 nM; in assay [3] it was 500 to 1500 nM; in assay [4] it was less than 500 nM.

`CCS(=O)(=O)Nc1ccc(Oc2cccc(N3CCC(C4CN(c5ncc(C(=O)N[C@H]6C(C)(C)[C@H](Oc7ccc(C#N)c(Cl)c7)C6(C)C)cn5)C4)CC3)c2)c(-c2cn(C)c(=O)c3[nH]ccc23)c1` [Compound I-182]: the GI50 is less than 500 nM in assay [1] (Homo sapiens), less than 500 nM in assay [2] (Homo sapiens), more than 3000 nM in assay [3] and less than 500 nM in assay [4].

Turning to `Cn1cc(-c2cc(C(C)(C)O)ccc2Oc2ccc(OC[C@@H]3CCCN(c4ncc(C(=O)N[C@H]5C(C)(C)[C@H](Oc6ccc(C#N)c(Cl)c6)C5(C)C)cn4)C3)cc2)c2cc[nH]c2c1=O` [Compound I-339], the GI50 is more than 3000 nM in assay [1] (Homo sapiens), less than 500 nM in assay [2] (Homo sapiens), more than 3000 nM in assay [3] and less than 500 nM in assay [4].

With `Cn1cc(-c2cc(C(C)(C)O)ccc2Oc2cccc(N3CC(N(C4CC4)C4CCN(c5ncc(C(=O)N[C@H]6C(C)(C)[C@H](Oc7ccc(C#N)c(Cl)c7)C6(C)C)cn5)CC4)C3)c2F)c2cc[nH]c2c1=O` [Compound I-240], the GI50 in assay [1] was 500 to 1500 nM; in assay [2], less than 500 nM; in assay [3], more than 3000 nM; in assay [4] it was less than 500 nM.

Turning to `CCS(=O)(=O)c1ccc(OC(CCCOC2CCN(c3ncc(C(=O)N[C@H]4C(C)(C)[C@H](Oc5ccc(C#N)c(Cl)c5)C4(C)C)cn3)CC2)C2CC2)c(-c2cn(C)c(=O)c3[nH]ccc23)c1` (some centres unmarked) [Compound I-236], the GI50 in assay [1], in assay [2], in assay [3] and in assay [4] was less than 500 nM in each case.

For the compound `Cn1cc(-c2cc(C(C)(C)O)ccc2Oc2ccc(OC[C@@H]3CCCN(c4cnc(C(=O)N[C@H]5C(C)(C)[C@H](Oc6ccc(C#N)c(Cl)c6)C5(C)C)cn4)C3)cc2)c2cc[nH]c2c1=O` [Compound I-340], the GI50 in assay [1] was more than 3000 nM; in assay [2], less than 500 nM; in assay [3] it was more than 3000 nM; in assay [4], more than 3000 nM.

As to `Cn1cc(-c2cc(C(C)(C)O)ccc2Oc2ccc(CCC3CCN(c4cnc(C(=O)N[C@H]5C(C)(C)[C@H](Oc6ccc(C#N)c(Cl)c6)C5(C)C)cn4)CC3)nc2)c2cc[nH]c2c1=O` [Compound I-341], the GI50 in assay [1], in assay [2], in assay [3] and in assay [4] was less than 500 nM throughout.

`CC(C)N(CCOC1CCN(c2ncc(C(=O)N[C@H]3C(C)(C)[C@H](Oc4ccc(C#N)c(Cl)c4)C3(C)C)cn2)CC1)c1cccc(Oc2ccc(C(C)(C)O)cc2-c2cn(C)c(=O)c3[nH]ccc23)c1F` [Compound I-209]: the GI50 in assay [1], in assay [2], in assay [3] and in assay [4] was less than 500 nM in each case.

On to `Cn1cc(-c2cc(C(C)(C)O)ccc2O[C@H]2C[C@H](CC3CCN(c4ncc(C(=O)N[C@H]5C(C)(C)[C@H](Oc6ccc(C#N)c(Cl)c6)C5(C)C)cn4)CC3)C2)c2cc[nH]c2c1=O` [Compound I-309, N-[3-(3-chloro-4-cyano-phenoxy)-2,2,4,4-tetramethyl-cyclobutyl]-2-[4-[[3-[4-(1-hydroxy-1-methyl-ethyl)-2-(6-methyl-7-oxo-1H-pyrrolo[2,3-c]pyridin-4-yl)phenoxy]cyclobutyl]methyl]-1-piperidyl]pyrimidine-5-carboxamide], for which the GI50 in assay [1] (Homo sapiens) was less than 500 nM; in assay [2] (Homo sapiens), less than 500 nM; in assay [3], 500 to 1500 nM; in assay [4], less than 500 nM.

For `CCS(=O)(=O)c1ccc(Oc2ccc(OC3CC4(C3)CN(c3ncc(C(=O)N[C@H]5C(C)(C)[C@H](Oc6ccc(C#N)c(Cl)c6)C5(C)C)cn3)C4)c(F)c2)c(-c2cn(C)c(=O)c3[nH]ccc23)c1` [Compound I-276], the GI50 in assay [1] (Homo sapiens), in assay [2] (Homo sapiens), in assay [3] and in assay [4] was less than 500 nM in each case.

Take `CCS(=O)(=O)Nc1ccc(Oc2ccc(N3CC(CC4CCN(c5ncc(C(=O)N[C@H]6C(C)(C)[C@H](Oc7ccc(C#N)c(Cl)c7)C6(C)C)cn5)CC4)C3)cc2)c(-c2cn(C)c(=O)c3[nH]ccc23)c1` [Compound I-337]: the concentration for 50% growth inhibition (GI50) is less than 500 nM in assay [1] (Homo sapiens), less than 500 nM in assay [2] (Homo sapiens), more than 3000 nM in assay [3] and less than 500 nM in assay [4].

For `CCS(=O)(=O)Nc1ccc(Oc2cccc(CC3CCN(c4ncc(C(=O)N[C@H]5C(C)(C)[C@H](Oc6ccc(C#N)c(Cl)c6)C5(C)C)cn4)CC3)c2)c(-c2cn(C)c(=O)c3[nH]ccc23)c1` [Compound I-23], the GI50 in assay [1] (Homo sapiens), in assay [2] (Homo sapiens), in assay [3] and in assay [4] was less than 500 nM throughout.

As for `Cn1cc(-c2cc(C(C)(C)O)ccc2Oc2ccc(C3(NC4CCN(c5ncc(C(=O)N[C@H]6C(C)(C)[C@H](Oc7ccc(C#N)c(Cl)c7)C6(C)C)cn5)CC4)COC3)cc2)c2cc[nH]c2c1=O` [Compound I-246], the GI50 in assay [1] is less than 500 nM; in assay [2], 500 to 1500 nM; in assay [3], less than 500 nM; in assay [4], less than 500 nM.

On to `Cn1cc(-c2cc(C(C)(C)O)ccc2Oc2ccc(CCC3CCCN(c4ncc(C(=O)N[C@H]5C(C)(C)[C@H](Oc6ccc(C#N)c(Cl)c6)C5(C)C)cn4)C3)cc2)c2cc[nH]c2c1=O` (some centres unmarked) [Compound I-301], for which the GI50 in assay [1] is 500 to 1500 nM; in assay [2], less than 500 nM; in assay [3], more than 3000 nM; in assay [4], less than 500 nM.

In the case of `CCS(=O)(=O)Cc1ccc(Oc2cccc(OC(C)(C)CCC3CCN(c4ncc(C(=O)N[C@H]5C(C)(C)[C@H](Oc6ccc(C#N)c(Cl)c6)C5(C)C)cn4)CC3)c2)c(-c2cn(C)c(=O)c3[nH]ccc23)c1` [Compound I-293], the GI50 in assay [1] was less than 500 nM; in assay [2], less than 500 nM; in assay [3], more than 3000 nM; in assay [4], less than 500 nM.

Turning to `Cn1cc(-c2cc(C(C)(C)O)ccc2Oc2cccc(N3CCC(CC4CCN(c5ncc(C(=O)N[C@H]6C(C)(C)[C@H](Oc7ccc(C#N)c(Cl)c7)C6(C)C)cn5)CC4)CC3)c2)c2cc[nH]c2c1=O` [Compound I-325], the GI50 in assay [1] was more than 3000 nM; in assay [2] it was less than 500 nM; in assay [3], more than 3000 nM; in assay [4] it was less than 500 nM.

Consider `CCS(=O)(=O)Cc1ccc(Oc2cccc(OCCCC3CCN(c4ncc(C(=O)N[C@H]5C(C)(C)[C@H](Oc6ccc(C#N)c(Cl)c6)C5(C)C)cn4)CC3)c2)c(-c2cn(C)c(=O)c3[nH]ccc23)c1` [Compound I-257], for which the GI50 in assay [1] (Homo sapiens), in assay [2] (Homo sapiens), in assay [3] and in assay [4] was less than 500 nM each time.

In the case of `Cn1cc(-c2cc(C(C)(C)O)ccc2Oc2cccc(OC3CC4(C3)CN(c3ncc(C(=O)N[C@H]5C(C)(C)[C@H](Oc6ccc(C#N)c(Cl)c6)C5(C)C)cn3)C4)c2)c2cc[nH]c2c1=O` [Compound I-320], the GI50 in assay [1], in assay [2], in assay [3] and in assay [4] was less than 500 nM throughout.

As for `Cn1cc(-c2cc3c(cc2Oc2ccc(N4CC(CC5CN(c6ncc(C(=O)N[C@H]7C(C)(C)[C@H](Oc8ccc(C#N)c(Cl)c8)C7(C)C)cn6)C5)C4)cc2)CCC3(C)O)c2cc[nH]c2c1=O` (some centres unmarked) [Compound I-329, N-[3-(3-chloro-4-cyano-phenoxy)-2,2,4,4-tetramethyl-cyclobutyl]-2-[3-[[1-[4-[1-hydroxy-1-methyl-6-(6-methyl-7-oxo-1H-pyrrolo[2,3-c]pyridin-4-yl)indan-5-yl]oxyphenyl]azetidin-3-yl]methyl]azetidin-1-yl]pyrimidine-5-carboxamide], the GI50 was less than 500 nM in assay [1] (Homo sapiens), more than 3000 nM in assay [2] (Homo sapiens), more than 3000 nM in assay [3] and less than 500 nM in assay [4].

Consider `Cn1cc(-c2ccccc2Oc2cccc(CCOC3CCN(c4ncc(C(=O)N[C@H]5C(C)(C)[C@H](Oc6ccc(C#N)c(Cl)c6)C5(C)C)cn4)CC3)c2F)c2cc[nH]c2c1=O` [Compound I-149], for which the GI50 in assay [1] is less than 500 nM; in assay [2], 500 to 1500 nM; in assay [3], less than 500 nM; in assay [4], less than 500 nM.

Turning to `Cn1cc(-c2cc(C(C)(C)O)ccc2Oc2ccc(C3CC(N4CCN(c5ncc(C(=O)N[C@H]6C(C)(C)[C@H](Oc7ccc(C#N)c(Cl)c7)C6(C)C)cn5)CC4)C3)cc2)c2cc[nH]c2c1=O` (some centres unmarked) [Compound I-311], the GI50 in assay [1] is less than 500 nM; in assay [2], less than 500 nM; in assay [3] it was 500 to 1500 nM; in assay [4], less than 500 nM.
